Experimental data taken from patent publication US4088772A, “Methanodibenzocycloheptapyrroles” (E. I. Du Pont de Nemours and Company, priority 1975, dated 1978).
Where a name gives a salt, the structure may show the parent alone. Read-outs that look alike come from different tables or passages of the source.

Assays:
[1] = tested on: phenylquinone-induced writhing; assay: Phenylquinone writhing test (analgesia); assay type: in vivo, mouse (Carworth CF1 S female); conditions: mice; for ED50: Mus musculus
Source text: This mouse test is predictive of analgesic response in humans. [E. Siegmund, R. Cadmus and G. Lee, Proc. Soc.
ED50 values were obtained graphically from the data.

[2] = in vivo; conditions: mouse, in vivo, po
[3] = tested on: female white mice; assay: animal or person; conditions: oral, mice; for ED50: Mus musculus, po
[4] = read-out: Catatonia ED50, Table III
[5] = read-out: Exploratory Loss Visual ED50, Table III
[6] = read-out: Muscle Tone ED50, Table III
[7] = read-out: Ptosis ED50, Table III
[8] = read-out: Reflexes Grip ED50, Table III
[9] = read-out: Reflexes Lift ED50, Table III
[10] = read-out: Reflexes Pinna ED50, Table III

Structure (SMILES) | ED50 ([1]; po, Table III) | LD50 at 24 h [2] | ED50 [3, 4] | ED50 [3, 5] | ED50 [3, 6] | ED50 [3, 7] | ED50 [3, 8] | ED50 [3, 9] | ED50 [3, 10] | Phenylquinone Analgesia ED50 ([1]; Table III, oral) | ED50 ([1]; Table III, oral) | Phenylquinone Analgesia ED50 ([1]; Table 1, oral) | ED50 [2] | ED50 ([3]; read-out: Reflexes Grip ED50, Table 1) | Catatonia ED50 ([3]; Table 1) | Exploratory Loss Visual ED50 ([3]; Table 1) | Muscle Tone ED50 ([3]; Table 1) | Ptosis ED50 ([3]; Table 1) | Reflexes Lift ED50 ([3]; Table 1) | Reflexes Pinna ED50 ([3]; Table 1)
Clc1ccc2c(c1)[C@]13C[C@H]2c2ccccc2[C@H]1CN(CC1CCCC1)C3 (relative stereo) [Example 76, 5-Chloro-2-cyclopentylmethyl-2,3,8,12b-tetrahydro-1H-3a,8-methanodibezno[3,4:6,7]cyclohepta[1,2-c]pyrrole Hydrochloride] | < 130 mg/kg | 300 mg/kg | 12 mg/kg | 7 mg/kg | 12 mg/kg | 7 mg/kg | > 324 mg/kg | 20 mg/kg | 20 mg/kg |  |  |  |  |  |  |  |  |  |  | 
Fc1ccc2c(c1)[C@]13C[C@H]2c2ccccc2[C@H]1CN(CC1CCCC1)C3 (relative stereo) [Example 77, 5-Fluoro-2-cyclopentylmethyl-2,3,8,12b-tetrahydro-1H-3a,8-methanodibenzo[3,4:6,7]cyclohepta[1,2-c]pyrrole Hydrochloride] | < 130 mg/kg | > 324 mg/kg | 20 mg/kg | 7 mg/kg | 20 mg/kg | 7 mg/kg | > 324 mg/kg | 20 mg/kg | 36 mg/kg |  |  |  |  |  |  |  |  |  |  | 
FC(F)c1ccc2c(c1)[C@]13C[C@H]2c2ccccc2[C@H]1CN(CC1CCCC1)C3 (relative stereo) [Example 78, 5-Difluoromethyl-2-cyclopentylmethyl-2,3,8,12b-tetrahydro-1H-3a,8-methanodibenzo[3,4:6,7]cyclohepta[1,2c]pyrrole Hydrochloride] | < 130 mg/kg | > 324 mg/kg | 20 mg/kg | 7 mg/kg | 7 mg/kg | < 4 mg/kg | > 324 mg/kg | 20 mg/kg | 7 mg/kg |  |  |  |  |  |  |  |  |  |  | 
Clc1ccc2c(c1)[C@H]1CN(CC3CCCC3)C[C@@]13C[C@@H]2c1ccc(Cl)cc13 (relative stereo) [Example 79, 5,11-Dichloro-2-cyclopentylmethyl-2,3,8,12b-tetrahydro1H-3a,8-methanodibenzo[3,4:6,7]cyclohepta[1,2-c]pyrrole Hydrochloride] |  | > 324 mg/kg | 20 mg/kg | 7 mg/kg | 36 mg/kg | 7 mg/kg | > 324 mg/kg | 36 mg/kg | 7 mg/kg | active |  |  |  |  |  |  |  |  |  | 
[N-]=[N+]=Nc1ccc2c(c1)[C@]13C[C@H]2c2ccccc2[C@H]1CN(CC1CCCC1)C3 (relative stereo) [Example 82, 5-Azido-2-cyclopentylmethyl-2,3,8,12b-tetrahydro-1H-3a,8-methanodibenzo[3,4:6,7]cyclohepta[1,2-c]-pyrrole] | < 130 mg/kg | > 324 mg/kg | 60 mg/kg | 7 mg/kg | 20 mg/kg | 7 mg/kg | > 324 mg/kg | 60 mg/kg | 36 mg/kg |  |  |  |  |  |  |  |  |  |  | 
ON=Cc1ccc2c(c1)[C@]13C[C@H]2c2ccccc2[C@H]1CN(CC1CCCC1)C3 (relative stereo) [Example 83, 5-Formyl-2-cyclopentylmethyl-2,3,8,12b-tetrahydro-1H-3a,8-methanodibenzo[3,4:6,7]cyclohepta[1,2-c]pyrrole Oxime Hydrochloride] | 2.7 mg/kg | > 324 mg/kg | 36 mg/kg | 20 mg/kg | 36 mg/kg | 36 mg/kg | > 324 mg/kg | 60 mg/kg | 20 mg/kg |  |  |  |  |  |  |  |  |  |  | 
CNC(=O)ON=Cc1ccc2c(c1)[C@]13C[C@H]2c2ccccc2[C@H]1CN(CC1CCCC1)C3 (relative stereo) [Example 84, 5-Formyl-2-cyclopentylmethyl-2,3,8,12b-tetrahydro-1H-3a,8-methanodibenzo[3,4:6,7]cyclohepta[1,2-c]pyrrole Oxime-O-(N-methylcarbamate) Hydrochloride] |  | > 324 mg/kg | 100 mg/kg | 60 mg/kg | 100 mg/kg | 36 mg/kg | > 324 mg/kg | 200 mg/kg | 100 mg/kg |  | < 130 mg/kg |  |  |  |  |  |  |  |  | 
N#Cc1ccc2c(c1)[C@]13C[C@H]2c2ccccc2[C@H]1CN(CC1CCCC1)C3 (relative stereo) [Example 85, 5-Cyano-2-cyclopentylmethyl-2,3,8,12b-tetrahydro-1H-3a,8-methanodibenzo[3,4:6,7]cyclohepta[1,2-c]-pyrrole Hydrochloride] | 1.7 mg/kg | 300 mg/kg | 15 mg/kg | 4.4 mg/kg | 15 mg/kg | 4.4 mg/kg | > 324 mg/kg | 17 mg/kg | 9.7 mg/kg |  |  |  |  |  |  |  |  |  |  | 
OCc1ccc2c(c1)[C@]13C[C@H]2c2ccccc2[C@H]1CN(CC1CCCC1)C3 (relative stereo) [Example 86, 2-Cyclopentylmethyl-2,3,8,12b-tetrahydro-1H-3a,8-methanodibenzo[3,4:6,7]cyclohepta[1,2-c]pyrrole-5-methanol Hydrochloride] | 26 mg/kg | > 324 mg/kg | 60 mg/kg | 12 mg/kg | 60 mg/kg | 7 mg/kg | 200 mg/kg | 36 mg/kg | 20 mg/kg |  |  |  |  |  |  |  |  |  |  | 
FCc1ccc2c(c1)[C@]13C[C@H]2c2ccccc2[C@H]1CN(CC1CCCC1)C3 (relative stereo) [Example 87, 5-Fluoromethyl-2-cyclopentylmethyl-2,3,8,12b-tetrahydro-1H-3a,8-methanodibenzo[3,4:6,7]cyclohepta[1,2-c]-pyrrole Hydrochloride] | 78 mg/kg | > 324 mg/kg | 36 mg/kg | 12 mg/kg | 36 mg/kg | 7 mg/kg | 300 mg/kg | 36 mg/kg | 36 mg/kg |  |  |  |  |  |  |  |  |  |  | 
CNS(=O)(=O)c1ccc2c(c1)[C@]13C[C@H]2c2ccccc2[C@H]1CN(CC1CCCC1)C3 (relative stereo) [Example 88, 2-Cyclopentylmethyl-2,3,8,12b-tetrahydro-1H-3a,8-methanodibenzo[3,4:6,7]cyclohepta[1,2-c]pyrrole-5-N-methylsulfonamide Hydrochloride] | < 130 mg/kg | > 324 mg/kg | 300 mg/kg | 20 mg/kg | 200 mg/kg | 36 mg/kg | > 324 mg/kg | 200 mg/kg | 100 mg/kg |  |  |  |  |  |  |  |  |  |  | 
c1ccc2c(c1)C1CC3(CN(CC4CCCC4)CC23)c2ccccc21 (single isomer, unassigned; (-)) [(-)-Cyclopentylmethyl, 2-Cyclopentylmethyl-2,3,8,12b-tetrahydro-trans-1H,-3a,8-methanodibenzo[3,4:6,7]cyclohepta[1,2-c]pyrrole] |  | > 324 mg/kg |  |  |  |  |  |  |  |  |  | 1.2 mg/kg | > 324 mg/kg | 200 mg/kg | 7 mg/kg | < 4 mg/kg | < 4 mg/kg | < 4 mg/kg | 4 mg/kg | 4 mg/kg
